Values after ≈ are worked out from the molar mass of the structure shown. Structures can show the parent of a compound that is named as a salt.
Columns and labels:
[1] = system: S. aureus strain ATCC13709; test: Antibacterial susceptibility (MIC) in CAMHB; assay type: cell-based; conditions: for Minimum inhibitory concentration, CAMHB: S. aureus ATCC 13709, cation adjusted Mueller-Hinton broth, 37° C., 18 h; for MIC: Staphylococcus aureus, ATCC13709, 18 h, read-out: Minimum inhibitory concentration, CAMHB
Experimental: (§1) Susceptibility of S. aureus strain ATCC13709 to the commercial antibiotics and synthesized compounds was determined by following the guidelines set by the Clinical and Laboratory Standards Institute (formerly the National Committee for Clinical Laboratory Standards) (M26-A). Compounds were diluted two-fold serially in either DMSO (Vancomycin 4, Oritavancin 8, compounds 10, 31, 33, 39, 44, 50, 60, 65), DMF (compounds 18 and 21) or in PBS (compound 6) and transferred to cation-adjusted Mueller Hinton broth (CAMHB; Becton Dickinson). 50 μL of compounds diluted in CAMHB was mixed with […] of bacteria diluted in CAMHB in 96-well microtiter plates. The final number of micro-organisms in the assay was 5×10^5 c.f.u. per mL and the final concentration of DMSO or DMF in the assay, if present, was 1.25%. Assays were set up in duplicate and incubated at 37° C. for 18 h. The concentration of compound that inhibited visible growth was reported as the minimum inhibitory concentration (MIC).

[2] = system: S. aureus strain ATCC13709; test: Antibacterial susceptibility (MIC) in the presence of 50% serum; assay type: cell-based; conditions: for Minimum inhibitory concentration, CAMHB + 50% Human Serum / Minimum inhibitory concentration, CAMHB + 50% Mouse Serum / Minimum inhibitory concentration, CAMHB + 50% Rat Serum: S. aureus ATCC 13709; for MIC: Staphylococcus aureus
Experimental: as §1
Susceptibility testing experiments were also carried out in the presence of serum. These experiments were carried out similar to the susceptibility testing with the following modifications. 75 μL of compounds diluted in CAMHB was mixed with 75 μL of bacteria diluted in 100% serum from any given source (commercial pooled mouse serum (MS) and human serum (HS), Equitech-Bio Inc.). The final concentration of animal serum in the assay was 50% and the concentrations of all other components were identical to those described for susceptibility testing.

[3] = Regeneration of parent drug from bone powder-bound prodrug; assay type: in vitro ADME; conditions: 24 h incubation, 37° C.
Experimental: Amounts of parent drug “regenerated” from the phosphonated prodrug were measured as follows. Washed bone powder-bound prodrugs from the above experiment were resuspended in 400 μL PBS+2% DMSO or in 400 μL 50% (v/v in PBS+2% DMSO) human or rat serum. The suspension was incubated overnight at 37° C., centrifuged at 13,000 rpm for 2 min and the supernatant was recovered. The amount of regenerated parent drug in the supernatant was determined by measurements using the microbiological assays that were previously described for the prodrugs themselves. The amount of released drug from prodrug was deduced from standard curves of known amounts of parent drug that were used as reference for each experiment. The amount of regenerated drug assessed by this bioassay was corroborated by MIC determination. The percentage of drug regenerated in PBS or serum after the overnight incubation (Table 2) was deduced from the difference between the amount of bound prodrug and the amount of regenerated drug (not shown).

[4] = ATCC13709, read-out: Minimum inhibitory concentration, CAMHB + 50% Human Serum
[5] = ATCC13709, read-out: Minimum inhibitory concentration, CAMHB + 50% Mouse Serum
[6] = ATCC13709, read-out: Minimum inhibitory concentration, CAMHB + 50% Rat Serum

| Compound | Minimum inhibitory concentration, CAMHB [1] [µg/mL] | Minimum inhibitory concentration, CAMHB + 50% Human Serum [2] [µg/mL] | Minimum inhibitory concentration, CAMHB + 50% Mouse Serum [2] [µg/mL] | Minimum inhibitory concentration, CAMHB + 50% Rat Serum [2] [µg/mL] | % Conversion (prodrug converted to parent drug) ([3]; 50% human serum) [%] | % Conversion (prodrug converted to parent drug) ([3]; 50% rat serum) [%] | % Conversion (prodrug converted to parent drug) ([3]; PBS) [%] | MIC [1] [µg/mL] | MIC [2, 4] [µg/mL] | MIC [2, 5] [µg/mL] | MIC [2, 6] [µg/mL] |
| --- | --- | --- | --- | --- | --- | --- | --- | --- | --- | --- | --- |
| CC(C)CC(C(=O)NC1C(=O)NC(CC(N)=O)C(=O)NC2C(=O)NC3C(=O)NC(C(=O)NC(C(=O)O)c4cc(O)cc(O)c4-c4cc3ccc4O)C(O)c3ccc(c(Cl)c3)Oc3cc2cc(c3OC2OC(CO)C(O)C(O)C2OC2CC(C)(N)C(O)C(C)O2)Oc2ccc(cc2Cl)C1O)N(C)C(=O)CCC(=O)NC(P(=O)(O)O)P(=O)(O)O (stereo not shown) [Compound 6] | 64 (≈ 37.2 µM) | 16 | 32 | 128 | – | – | – | – | – | – | – |
| CC(C)C[C@H](C(=O)N[C@H]1C(=O)N[C@@H](CC(N)=O)C(=O)N[C@H]2C(=O)N[C@H]3C(=O)N[C@H](C(=O)N[C@H](C(=O)O)c4cc(O)cc(O)c4-c4cc3ccc4O)[C@H](O[C@H]3C[C@](C)(N)[C@@H](O)[C@H](C)O3)c3ccc(c(Cl)c3)Oc3cc2cc(c3O[C@@H]2O[C@H](CO)[C@@H](O)[C@H](O)[C@H]2O[C@H]2C[C@](C)(NCc3ccc(-c4ccc(Cl)cc4)cc3)[C@@H](O)[C@H](C)O2)Oc2ccc(cc2Cl)[C@H]1O)N(C)C(=O)CCCC(=O)NC(P(=O)(O)O)P(=O)(O)O.N.N.N [Compound 10] | >32 | >32 | >32 | >32 | – | – | – | – | – | – | – |
| CNC(CC(C)C)C(=O)NC1C(=O)NC(CC(N)=O)C(=O)NC2C(=O)NC3C(=O)NC(C(=O)NC(C(=O)OCC(=O)NC(P(=O)(O)O)P(=O)(O)O)c4cc(O)cc(O)c4-c4cc3ccc4O)C(O)c3ccc(c(Cl)c3)Oc3cc2cc(c3OC2OC(CO)C(O)C(O)C2OC2CC(C)(N)C(O)C(C)O2)Oc2ccc(cc2Cl)C1O (stereo not shown) [Compound 18] | 16 (≈ 9.52 µM) | 8 | 16 | 32 | 2.34 | 2.58 | 2.09 | – | – | – | – |
| CNC(CC(C)C)C(=O)NC1C(=O)NC(CC(N)=O)C(=O)NC2C(=O)NC3C(=O)NC(C(=O)NC(C(=O)OCC(=O)Nc4ccc(CC(P(=O)(O)O)P(=O)(O)O)cc4)c4cc(O)cc(O)c4-c4cc3ccc4O)C(O)c3ccc(c(Cl)c3)Oc3cc2cc(c3OC2OC(CO)C(O)C(O)C2OC2CC(C)(N)C(O)C(C)O2)Oc2ccc(cc2Cl)C1O (stereo not shown) [Compound 21] | 16 (≈ 9.04 µM) | 16 | 16 | 32 | 3.5 | 4.1 | 3.5 | – | – | – | – |
| CN[C@H](CC(C)C)C(=O)N[C@H]1C(=O)N[C@@H](CC(N)=O)C(=O)N[C@H]2C(=O)N[C@H]3C(=O)N[C@H](C(=O)N[C@H](C(=O)OCC(=O)NC(P(=O)(O)O)P(=O)(O)O)c4cc(O)cc(O)c4-c4cc3ccc4O)[C@H](O[C@H]3C[C@](C)(N)[C@@H](O)[C@H](C)O3)c3ccc(c(Cl)c3)Oc3cc2cc(c3O[C@@H]2O[C@H](CO)[C@@H](O)[C@H](O)[C@H]2O[C@H]2C[C@](C)(NCc3ccc(-c4ccc(Cl)cc4)cc3)[C@@H](O)[C@H](C)O2)Oc2ccc(cc2Cl)[C@H]1O.O=C(O)C(F)(F)F.O=C(O)C(F)(F)F.O=C(O)C(F)(F)F [Compound 31] | 16 | 32 | 2 | 2 | – | – | – | – | – | – | – |
| CN[C@H](CC(C)C)C(=O)N[C@H]1C(=O)N[C@@H](CC(N)=O)C(=O)N[C@H]2C(=O)N[C@H]3C(=O)N[C@H](C(=O)N[C@H](C(=O)OCC(=O)Nc4ccc(CC(P(=O)(O)O)P(=O)(O)O)cc4)c4cc(O)cc(O)c4-c4cc3ccc4O)[C@H](O[C@H]3C[C@](C)(N)[C@@H](O)[C@H](C)O3)c3ccc(c(Cl)c3)Oc3cc2cc(c3O[C@@H]2O[C@H](CO)[C@@H](O)[C@H](O)[C@H]2O[C@H]2C[C@](C)(NCc3ccc(-c4ccc(Cl)cc4)cc3)[C@@H](O)[C@H](C)O2)Oc2ccc(cc2Cl)[C@H]1O.N.N.N [Compound 33] | >32 | >32 | 8 | 8 | – | – | – | – | – | – | – |
| CC(C)C[C@H](C(=O)N[C@H]1C(=O)N[C@@H](CC(N)=O)C(=O)N[C@H]2C(=O)N[C@H]3C(=O)N[C@H](C(=O)N[C@H](C(=O)O)c4cc(O)cc(O)c4-c4cc3ccc4O)[C@H](O[C@H]3C[C@](C)(N)[C@@H](O)[C@H](C)O3)c3ccc(c(Cl)c3)Oc3cc2cc(c3O[C@@H]2O[C@H](CO)[C@@H](O)[C@H](O)[C@H]2O[C@H]2C[C@](C)(NCc3ccc(-c4ccc(Cl)cc4)cc3)[C@@H](O)[C@H](C)O2)Oc2ccc(cc2Cl)[C@H]1O)N(C)C(=O)CCC(P(=O)(O)O)P(=O)(O)O [Compound 39] | >32 | >32 | >32 | >32 | – | 0.9 | 0.01 | – | – | – | – |
| CC(C)C[C@H](C(=O)N[C@H]1C(=O)N[C@@H](CC(N)=O)C(=O)N[C@H]2C(=O)N[C@H]3C(=O)N[C@H](C(=O)N[C@H](C(=O)O)c4cc(O)cc(O)c4-c4cc3ccc4O)[C@H](O[C@H]3C[C@](C)(N)[C@@H](O)[C@H](C)O3)c3ccc(c(Cl)c3)Oc3cc2cc(c3O[C@@H]2O[C@H](CO)[C@@H](O)[C@H](O)[C@H]2O[C@H]2C[C@](C)(NCc3ccc(-c4ccc(Cl)cc4)cc3)[C@@H](O)[C@H](C)O2)Oc2ccc(cc2Cl)[C@H]1O)N(C)C(=O)CC(P(=O)(O)O)P(=O)(O)O.N.N.N [Compound 44] | 32 | 32 | 4 | 4 | – | – | – | – | – | – | – |
| CC(C)C[C@H](C(=O)N[C@H]1C(=O)N[C@@H](CC(N)=O)C(=O)N[C@H]2C(=O)N[C@H]3C(=O)N[C@H](C(=O)N[C@H](C(=O)O)c4cc(O)cc(O)c4-c4cc3ccc4O)[C@H](O[C@H]3C[C@](C)(N)[C@@H](O)[C@H](C)O3)c3ccc(c(Cl)c3)Oc3cc2cc(c3O[C@@H]2O[C@H](CO)[C@@H](O)[C@H](O)[C@H]2O[C@H]2C[C@](C)(NCc3ccc(-c4ccc(Cl)cc4)cc3)[C@@H](O)[C@H](C)O2)Oc2ccc(cc2Cl)[C@H]1O)N(C)C(=O)CCCOC(=O)CC(P(=O)(O)O)P(=O)(O)O [Compound 50] | 32 (≈ 15.3 µM) | >32 | 32 | >32 | – | – | – | – | – | – | – |
| CN[C@H](CC(C)C)C(=O)N[C@H]1C(=O)N[C@@H](CC(N)=O)C(=O)N[C@H]2C(=O)N[C@H]3C(=O)N[C@H](C(=O)N[C@H](C(=O)O)c4cc(O)cc(O)c4-c4cc3ccc4O)[C@H](O[C@H]3C[C@](C)(N)[C@@H](O)[C@H](C)O3)c3ccc(c(Cl)c3)Oc3cc2cc(c3O[C@@H]2O[C@H](CO)[C@@H](O)[C@H](O)[C@H]2O[C@H]2C[C@](C)(NCc3ccc(-c4ccc(Cl)cc4)cc3)[C@@H](O)[C@H](C)O2)Oc2ccc(cc2Cl)[C@H]1O [Oritavancin (8), oritavancin bisphosphoric acid salt, reference compound] | – | – | – | – | – | – | – | 0.5 | 1 | 2 | 0.25 |
| CN[C@H](CC(C)C)C(=O)N[C@H]1C(=O)N[C@@H](CC(N)=O)C(=O)N[C@H]2C(=O)N[C@H]3C(=O)N[C@H](C(=O)N[C@H](C(=O)O)c4cc(O)cc(O)c4-c4cc3ccc4O)[C@H](O)c3ccc(c(Cl)c3)Oc3cc2cc(c3O[C@@H]2O[C@H](CO)[C@@H](O)[C@H](O)[C@H]2O[C@H]2C[C@](C)(N)[C@H](O)[C@H](C)O2)Oc2ccc(cc2Cl)[C@H]1O [Vancomycin (4), vancomycin hydrochloride, reference compound] | – | – | – | – | – | – | – | 1 | 1 | 2 | 2 |

Source: patent US8946144B2, “Phosphonated glycopeptide and lipoglycopeptide antibiotics and uses thereof for the prevention and treatment of bone and joint infections” (The Medicines Company, priority 2006, dated 2015)
